# Measurements: US5763423A, “Pharmaceutical compositions, novel uses, and novel form of tocopherylphosphocholine” (Clarion Pharmaeuticals Inc., priority 1996, dated 1998)
# Entries after “also recorded” stand apart in the source; their conditions may differ.
# Experiments:
# [1] = test system: Herpes simplex virus type-1; assay: Inhibition of cytopathic effects (CPE), Herpes Simplex Virus Type 1; format: cell-based, HSV-1 KOS strain (in Buffalo Green Monkey Kidney cells); conditions: 100 μM, 48 hr
# Experimental: (§1) The first assay is for inhibition of cytopathic effects (CPE) caused by viral infection of the cells and the second is a standard viral yield reduction assay. This yield reduction assay is a modification of the general method described by Erlich et al., Ann. NY Acad. Sci. 130, 5-16 (1965).
# (§2) 1. Buffalo Green Monkey Kidney cells, obtained from Dr. G. Sedmak, City of Milwaukee, Public Health Department Virology Laboratory, are plated at a density of 7×10^4 cells per well in a standard flat bottom 96 well cell culture plate. The cells are contained in a volume of 200 μl Dulbecco's Modified Eagles Medium (DMEM) containing 10% serum [1:1 mixture of fetal bovine serum and defined supplemented calf serum (Hyclone, Inc., Ogden, Utah), 10 mM HEPES buffer (pH 7.2), 100 U/ml penicillin and 100 μg/ml streptomycin sulfate]. HEPES and antibiotics are obtained from Sigma Chemical Co. (St. Louis, Mo.). Two wells are plated for each of the following samples: compound CPR-2001, cell control (cells only), virus control (cells infected but not treated), vehicle control (solvent for compound, 9:1 dimethylsulfoxide:ethanol), and cell counts.
# 2. […]
# 9. At the end of 48 hr, each well is scored for the presence of CPE as indicated by rounding and/or detachment of the cells from the plate. […]
# [2] = test system: Herpes simplex virus type-1; assay: Viral yield reduction assay, Herpes Simplex Virus Type 1; format: cell-based, HSV-1 KOS strain (in Buffalo Green Monkey Kidney cells)
# Experimental: as §1, §2
# (§3) 2. The cultures are incubated at 37° C. with 5% CO2 until a monolayer of cells is formed on the bottom of each well (usually overnight).
# (§4) 3. The media is removed from the wells by aspiration. The cells are refed with media containing the desired concentration of test compound CPR-2001 (100 μM final concentration), media only (cell control and virus control samples), or solvent (9:1, DMSO:ethanol) at a final concentration of 0.33%. Compound CPR-2001 is dissolved at a stock concentration of 30 mM and diluted 300-fold. The cell count wells receive media only.
# (§5) 4. The cultures are incubated for 24 hr at 37° C. with 5% CO2.
# 7. […]
# 10. After scoring for viral CPE, the yield of infectious virus in each well is measured by standard plaque assay on Vero cells (ATCC #CCL81). […] Excess stain is rinsed from the cells, the number of plaques are counted and the yield of virus in the original sample is calculated.
# [3] = test system: Buffalo Green Monkey Kidney cells; assay: Toxicity to uninfected cells (rounding and/or detachment, 24 hr); format: cell-based; set-up: key to Toxicity 24 hr: Not toxic
# Experimental: as §2, §3, §4, §5
# 5. At the end of 24 hr, each well is scored for the presence of toxicity (cells exposed to compound but not infected) as indicated by rounding and/or detachment of the cells from the plate. Scoring is as follows: 1+, 25% of cells rounded; 2+, 25 to 50% of cells rounded; 3+, 75% of cells rounded; 4+, 100% of cells rounded.
# [4] = test system: Poliovirus Type III; format: cell-based; conditions: 100 μM, 48 hr
# [5] = test system: Poliovirus Type III; format: cell-based; conditions: 100 μM, 48 hr; remark: listed apart in the source
# [6] = test system: Candida albicans; assay: Antifungal assay, Candida albicans; format: cell-based
# Experimental: (§6) 1. 10^4 Cells (either C. albicans or C. neoformans) are placed in wells of a 96-well plate within a total volume of 90 μl. Cells are grown in RPMI-1640 plus 10% FCS.
# (§7) 2. Add 10 μl of control or drug to be evaluated (CPR-2001):
# (§8) Fungizone (2.5 μg/ml and 5.0 μg/ml); and
# (§9) 3. Incubate for 48 hours at 37° C.
# (§10) 5. Plate onto Sabourand plates and incubate overnight at 37° C.; and
# (§11) 6. Count and record colonies.
# (§12) All samples are tested in duplicate in two separate experiments. The data are then averaged to obtain the following results in Table 2.
# [7] = test system: Cryptococcus neoformans; assay: Antifungal assay, Cryptococcus neoformans; format: cell-based
# Experimental: as §6, §7, §8, §9, §10, §11, §12
# [8] = Anti-PAF activity in anesthetized guinea pigs (total pulmonary resistance); format: in vivo; conditions: for TPR after PAF, % of Controls: PAF controls 183.36; for PAF antagonist activity / TPR (in words): 1, 3, 10, 30 and 50 μM per kg
# [9] = Liposome particle size by laser-light scattering (QELS); format: physicochemical; conditions: 10 micromoles
# Source text: […] The solution is transferred to a 16×120 mm screw-capped tube. The tube is placed, uncapped, inside a 1×8 inch boiling tube with B24/40 standard glass fitting. Inside the boiling tube, in the space between the boiling tube and the smaller screw-capped tube, there is a small amount of distilled water to aid thermal contact between the inner and outer tube. The boiling tube is placed on a rotary evaporator under reduced pressure to evaporate the chloroform and leave the lipid as a thin film in the lower portion of the screw-capped tube. The boiling tube is partly immersed in a water bath at 37° C. during the evaporation to aid the process.
# (§13) Once a thin film has been formed, the screw-capped tube is removed from the boiling tube, and one ml. of aqueous solution is added to it. The tube is capped and immersed in a water bath at 75° C. to aid swelling of the lipid. Swelling of the film is observed to occur when the film becomes cloudy, and is, with agitation, dislodged from the walls of the tube to give a cloudy suspension in the aqueous medium. This suspension is found to consist of liposomes by the application of two techniques. First, laser-light scattering, or QELS, reveal the presence of particles of 658 nm in diameter in one determination, 1468 nm in another.
# In a second preparation, 10 micromoles of CPR 2001 are taken through the identical procedure described above. […]
# [10] = Electron microscopy of liposomes; format: physicochemical
# Experimental: Five micromoles of CPR-2001 are dissolved in about 1 ml. of chloroform. The solution is transferred to a 16×120 mm screw-capped tube. The tube is placed, uncapped, inside a 1×8 inch boiling tube with B24/40 standard glass fitting. Inside the boiling tube, in the space between the boiling tube and the smaller screw-capped tube, there is a small amount of distilled water to aid thermal contact between the inner and outer tube. The boiling tube is placed on a rotary evaporator under reduced pressure to evaporate the chloroform and leave the lipid as a thin film in the lower portion of the screw-capped tube. The boiling tube is partly immersed in a water bath at 37° C. during the evaporation to aid the process.
# as §13, with “another. […]” for “another.”
# [11] = test system: RAW 264.7 cells; assay: Chemiluminescence (CL) assay, inhibition of macrophage activation by PMA; conditions: for anti-inflammatory activity (in words): 1 to 30 μM; for inhibition at 1 µM / inhibition at 3 µM / inhibition at 10 µM / inhibition at 30 µM: Mus musculus, RAW264.7, read-out: % inhibition of macrophage activation by PMA
# [12] = increasing concentration, 1 to 100 μg/ml
smiles,measurement,setting,value
"Cc1c(C)c2c(c(C)c1OP(=O)([O-])OCC[N+](C)(C)C)CCC(C)(CCCC(C)CCCC(C)CCCC(C)C)O2 (stereo not drawn) [CPR-2001, α-tocopherolphosphocholine]",Viral CPE,[1],1+ (<25% of cells rounded)
same,development of viral cytopathic effect (in words),[1],markedly inhibits the development of viral cytopathic effect
same,Virus Yields (48 Hours),[2]; 100 μM,5.5 × 10^4 PFU/ml
same,Reduction of virus yield (fold reduction),"[2]; 100 μM, 48 hr, compared to virus and vehicle control",18 fold
same,activity at 100 µM,"[2]; Human alphaherpesvirus 1, BGMK, in Chlorocebus sabaeus, 48 hr, virus control 1.00, read-out: Virus Yields (48 Hours), Yield",5.5%
same,Toxicity,"[3]; Table 1A, 100 μM, 24 hr",N-±
same,Toxicity 24 hr,"[3]; Table 1B, 100 μM, 24 hr",N
same,Toxicity (in words),[3]; at antivirally effective levels,No apparent cytotoxicity; also recorded: not toxic
same,CPE,[4],2+ (25 to 50% of cells rounded)
same,development of viral CPE (in words),[4],inhibits the development of viral CPE
same,Titer,[5],2.7 × 10^6 pfu/ml
same,Fold-Reduction of virus yield,[5]; compared to virus control,10.7 fold
same,inhibition at 1 µg/mL,"[6]; Candida albicans, 1 mcg/ml, 48 hours",25%
same,inhibition at 10 µg/mL,"[6]; Candida albicans, 10 mcg/ml, 48 hours",40%
same,inhibition at 100 µg/mL,"[6]; Candida albicans, 100 mcg/ml, 48 hours",76%
same,percent of fungal inhibition (in words),[6]; [12],the percent of fungal inhibition also increases
same,inhibition at 1 µg/mL,"[7]; Cryptococcus neoformans, 1 mcg/ml, 48 hours",10%
same,inhibition at 10 µg/mL,"[7]; Cryptococcus neoformans, 10 mcg/ml, 48 hours",40%
same,inhibition at 100 µg/mL,"[7]; Cryptococcus neoformans, 100 mcg/ml, 48 hours",73%
same,percent of fungal inhibition (in words),[7]; [12],the percent of fungal inhibition also increases
same,"TPR after PAF, % of Controls",[8]; 1 μM/kg i.v.,193.75 % of Controls
same,"TPR after PAF, % of Controls",[8]; 3 μM/kg i.v.,124.58 % of Controls
same,"TPR after PAF, % of Controls",[8]; 10 μM/kg i.v.,98.19 % of Controls
same,"TPR after PAF, % of Controls",[8]; 30 μM/kg i.v.,19.60 % of Controls
same,"TPR after PAF, % of Controls",[8]; 50 μM/kg i.v.,8.33 % of Controls
same,PAF antagonist activity / TPR (in words),[8],Decreases of TPR in a dose-related way
same,PAF antagonist activity / TPR (in words),[8]; listed as α-tocopherolphosphocholine,marked PAF antagonist activity
same,particle size of liposomes (QELS),[9]; after about 10 minutes sonication at 75° C.,102 nm
same,particle size of liposomes (QELS),[9]; before sonication,"greater than 5,000 nm"
same,structure of particles by electron microscopy,"[10]; 5 micromoles, not sonicated",characteristic concentric lamellar structure of liposomes
same,structure of particles by electron microscopy,"[10]; 10 micromoles, after sonication","still multilamellar, but smaller"
same,anti-inflammatory activity (in words),[11],marked dose-related anti-inflammatory activity
same,anti-inflammatory activity (in words),[11]; listed as CPR2001,antiinflammatory activity markedly increases
same,inhibition at 1 µM,[11],5%
same,inhibition at 3 µM,[11],13%
same,inhibition at 10 µM,[11],31%
same,inhibition at 30 µM,[11],56%
"Cc1c(C)c2c(c(C)c1O)CCC(C)(CCCC(C)CCCC(C)CCCC(C)C)O2 (stereo not drawn) [α-Tocopherol, α-tocopherol]",inhibition at 1 µM,[11],-3%
same,inhibition at 3 µM,[11],-6%
same,inhibition at 10 µM,[11],-6%
same,inhibition at 30 µM,[11],-14%
"CC1=C(/C=C/C(C)=C/C=C/C(C)=C/C(=O)O)C(C)(C)CCC1 [Retinoic Acid, retinoic acid]",inhibition at 1 µM,[11],2%
same,inhibition at 3 µM,[11],6%
same,inhibition at 10 µM,[11],3%
same,inhibition at 30 µM,[11],6%
